# Reference: a melting point compilation (Tetko et al.; mined from patent text by program, amines drawn as free bases though some values may be those of a salt)
row,SMILES,melting point
1,COc1ccc(C(C)C)cc1-c1cc(-c2nnnn2C2CCN(C(=O)CC(C)C)CC2)c(O)cc1O,220 to 224 °C
2,O=C(NC1CCOCC1)NC12CC3CC(CC(C3)C1)C2,239 to 242 °C
3,CC(CCNC1=Nc2ccc(Br)c3cccc1c23)n1ccnc1 (stereo not given),240 to 241 °C
4,CCC(=O)NC1=C(OCCOC)C(=O)c2ccccc2C1=O,116 to 117 °C
5,CC(C)c1ccc(-c2nnc(-c3ccc(C(=O)O)cc3)s2)cc1,> 300 °C
6,CCOC(=O)COc1ccc2c(c1)C[C@H](NC(=O)OC(C)(C)C)CC2,113 to 115 °C
7,COC(=O)CC(=O)Nc1ccccc1COc1ccc(C(C)=O)c(O)c1,130 to 132 °C
8,CC(C)c1cc(C(=O)Nc2ccc(C(=O)O)c(Cl)c2)oc1C(C)C,152 to 153 °C
9,O=[N+]([O-])C=Cc1ccc(O)c(Br)c1,132 to 134 °C
10,COc1cc(C(=O)N2CCC(CCN3CCCN(c4nc5ccccc5n4CCOCC#N)CC3)(c3ccccc3)C2)cc(OC)c1OC (stereo not given),134 to 148 °C
11,COc1ccc(N2CCN(c3c(C)c(C)c4c(c3C)C(c3cccs3)C(C)(C)O4)CC2)cc1 (stereo not given),139 to 141 °C
12,COC(=O)c1ccc(-c2cc3c(Nc4cccc(Cl)c4)ncnc3[nH]2)cc1,> 300 °C
13,c1cc(-n2cccc2)cc(-n2cnc3cc(-c4ccco4)ccc32)c1,137 to 139 °C
14,CC[C@@]12C[C@@](C)(O)[C@](O)(c3ccccc3)C[C@H]1CCc1cc(OCC(=O)NCCCC#N)ccc12,185 to 186 °C
15,Nc1c(F)c(N2C[C@H](CF)[C@H](N)C2)c(F)c2c1c(=O)c(C(=O)O)cn2C1CC1 (relative stereo),248 to 249 °C
16,Cc1ccc(CCO)c(NCc2ccc3nc(NCCCN4CCOCC4)n(Cc4ncccc4O)c3c2)c1,192 °C
17,COc1ccc(N2CCN(c3c(C)c(C)c4c(c3C)C(N3CCCCCC3)C(C)(C)O4)CC2)cc1 (stereo not given),127 to 128 °C
18,COC(=O)/C=C(C)/C=C/C1(c2cc3c(cc2C)C(C)(C)CCC3(C)C)CC=CS1 (stereo not given),152 to 153 °C
19,CCOC(=O)C(C)Oc1ccc(-c2ccc(CCNC(=O)c3cc(Cl)ccc3OC)cc2)cc1 (stereo not given),< 20 °C
20,Cc1ccc(C)n1-c1ccc2ccc3[nH]c(=O)c(=O)n(CC(=O)NCc4ccccc4)c3c2c1,243 to 244 °C
21,Cn1cc(-c2cnc3ccc(Br)cc3n2)cn1,172 °C
22,CCOC(=O)c1[nH]c2c(C)ccc(Cl)c2c1C,118 to 119 °C
23,CNC(=O)N(OC)c1ccc(Oc2ccc3sncc3c2)c(C(F)(F)F)c1,197 °C
24,Cc1nnc2n1-c1ccccc1NC2(C)C,177 to 178 °C

row,SMILES,melting point
1,COc1ccc(N2CCN(CCC(O)COc3ccc(F)cc3)CC2)cc1 (stereo not given),78 to 80 °C
2,CCCCCCC(=O)c1ccc2occc2c1,64 to 67 °C
3,Nc1nc(N)c(CCCCc2csc(OC(=O)N[C@@H](CCC(=O)O)C(=O)O)c2)c(O)n1,235 to 236 °C
4,O=C(Nc1ccc(Cl)cc1F)c1cc(-c2ccc(F)cc2F)ccc1O,245 to 246 °C
5,C1=CC2(C3OCCO3)OC1c1ccccc12 (stereo not given),48 to 49 °C
6,Cc1ccc(S(=O)(=O)NC(=O)/C=C/c2c(C)nn(C)c2-n2ccc3cccnc32)cc1,237 to 238 °C
7,CC(=O)CC(O)c1ccc([N+](=O)[O-])cc1 (stereo not given),62 °C
8,CNc1nccc(-c2c(-c3ccc(F)cc3)ccn2C2CCNCC2)n1,189 to 191 °C
9,O=C(O)[C@H](Cc1ccc(OCc2ccccc2)cc1)NS(=O)(=O)c1ccc(N2CCC(c3ccccc3)CC2)cc1,75 to 78 °C
10,O=C(CCc1ccc(OCCS(=O)(=O)CCOC(c2ccc(Cl)cc2)c2ccc(Cl)cc2)cc1)C(F)(F)F,98 to 100 °C
11,CCCc1nn(-c2ccc(C(F)(F)F)cn2)cc1CCCOc1c(F)cccc1CC(=O)O,105 to 106 °C
12,CCn1c(-c2ccc3c(c2)OCCO3)cc(=Nc2c(C)cc(C)cc2C)n(C)c1=O,75 to 82 °C
13,Cn1nc2nc(C(C)(C)C)[nH]c(=O)c2c1N(S(C)(=O)=O)S(C)(=O)=O,258 to 259 °C
14,CC(C)NCC(O)COc1ncc(Br)nc1N(C)C (stereo not given),130 to 131 °C
15,NC(=O)c1nc(-c2cccc(O)c2)nc2c1[nH]c(=O)n2-c1ccccc1C(F)(F)F,363 to 365 °C
16,O=C(O)CSC1c2cccc(O)c2C(=O)c2c(O)cccc21,151 to 152 °C
17,COc1ccc(C[C@@H]2COc3ccc(OCc4nc5cc(F)ccc5s4)cc3[C@@H]2O)cc1C(=O)O (relative stereo),149 to 151 °C
18,CC(C)(C)NC(=O)[C@@H]1C[C@@H]2CCCC[C@@H]2CN1C[C@@H](O)[C@@H](N)Cc1ccccc1,175 to 176 °C
19,CCc1c(O)cccc1O,58 to 59 °C
20,CCOC(=O)C=CC(C)=CC=C(C)C=CC1=C(C)CCCC1(C)C,65 to 66 °C
21,C[C@@H](O)CNC1=NS(=O)(=O)c2sc(Cl)cc2N1,210 to 211 °C
22,Cc1c(Cl)cccc1S(=O)O,112 °C
23,C=C(C)Cc1cc2c(cc1O)CC(=O)N2CC,118 to 120 °C
24,CCN(CC)C(=O)Oc1c(N2CCCC2)c(=O)n(-c2ccccc2)c2ncccc12,158 to 160 °C

row,SMILES,melting point
1,C/C(=C\c1ccc(OCCN2CCOCC2)cc1)c1ccc2c(c1)C(C)(C)CCC2(C)C,107 to 109 °C
2,CS(=O)(=O)c1ccc(C(CC2CCC(=O)C2)C(=O)O)cc1Cl (stereo not given),164 to 167 °C
3,CC(=O)[Si](C)(C(C)(C)C)C(C)(C)C,35 °C
4,O=C(Oc1ccccc1)c1cc(Cl)c2ccccc2c1O,102 to 104 °C
5,Cc1nc(N2CCN(Cc3ccc(F)cc3)C2=O)sc1-c1cc[nH]n1,239 to 242 °C
6,CCSC1=NCC(=O)N1c1cc(Cl)ccc1OC,113 to 115 °C
7,COc1ccc(N2CCN(Cc3coc4ccccc34)CC2)cc1,110 to 112 °C
8,O=c1oc2c(c(O)c1-c1ccccc1)CCCC2c1ccccc1 (stereo not given),185 °C
9,CN(CCC#N)C(=O)c1nc(Cl)c(Cl)[nH]1,184 °C
10,CON=Cc1cc(NC(=O)N2CCOCN2)c(F)cc1Cl,169 to 171 °C
11,C=C1c2c(C)c(OCc3ccccc3)c(C)c(C)c2OC1(C)C,55 to 57 °C
12,CCOP(=O)(OCC)C1Cc2cc(C(F)(F)F)cc3[nH]c(=O)c(=O)n(c23)C1 (stereo not given),253 °C
13,O=C(Nc1cccc(Cl)c1)N1CCN(C(=O)c2ccc(Nc3ccnc4cc(C(F)(F)F)ccc34)cc2)CC1,266 to 268 °C
14,N#CCCC=NNc1ccc(CS(N)(=O)=O)cc1,175 to 176 °C
15,CCc1cccc(-c2ccc(S(=O)(=O)N3c4ccccc4CC3C(=O)NCc3ccc(CC(=O)OC)cc3)cc2)c1 (stereo not given),70 to 75 °C
16,Cc1cn(N=Cc2cc(C(C)(C)C)c(O)c(C(C)(C)C)c2)cn1,150 to 151 °C
17,COc1ccc(C(=O)c2ccon2)cc1,71 to 73 °C
18,CNc1cc(Cl)cc(NCCOC)c1[N+](=O)[O-],93 °C
19,CN1CCN(c2cc3c(cc2Cl)c(=O)c(C(=O)O)cn3C)CC1,286 °C
20,CN(C)c1ccc(C2SCC(C(=O)O)N2C(=O)OC(C)(C)C)cc1 (mixture of isomers),175 °C
21,CC(C)OP(=O)(/C=C/CCn1cnc2c(Cl)nc(N)nc21)OC(C)C,150 °C
22,Cn1c2c(ccc1=O)C(C)(N)CCC2 (stereo not given),166 to 168 °C
